Laboratory results published in ChEMBL document CHEMBL3232917, “Schiff's base derivatives bearing nitroimidazole and quinoline nuclei: new class of anticancer agents and potential EGFR tyrosine kinase inhibitors” (Bioorg Med Chem Lett, 2014).

How the values were obtained:
A549 = assay: cells; conditions: Homo sapiens, A549, 48 h
HepG2 = assay: cells; conditions: Homo sapiens, HepG2, 48 h
[1] = target: Receptor tyrosine-protein kinase erbB-2 (Homo sapiens) (UniProt P04626); assay: Inhibition of autophosphorylation of human HER2 cytoplasmic domain (amino acids 676 to 1245) (unknown origin) expressed in Sf9 cells after 1 hr by time-resolved fluorometry
Receptor tyrosine-protein kinase erbB-2 (Homo sapiens), sequence (P04626 whole entry, looked up, the tested form may be a part): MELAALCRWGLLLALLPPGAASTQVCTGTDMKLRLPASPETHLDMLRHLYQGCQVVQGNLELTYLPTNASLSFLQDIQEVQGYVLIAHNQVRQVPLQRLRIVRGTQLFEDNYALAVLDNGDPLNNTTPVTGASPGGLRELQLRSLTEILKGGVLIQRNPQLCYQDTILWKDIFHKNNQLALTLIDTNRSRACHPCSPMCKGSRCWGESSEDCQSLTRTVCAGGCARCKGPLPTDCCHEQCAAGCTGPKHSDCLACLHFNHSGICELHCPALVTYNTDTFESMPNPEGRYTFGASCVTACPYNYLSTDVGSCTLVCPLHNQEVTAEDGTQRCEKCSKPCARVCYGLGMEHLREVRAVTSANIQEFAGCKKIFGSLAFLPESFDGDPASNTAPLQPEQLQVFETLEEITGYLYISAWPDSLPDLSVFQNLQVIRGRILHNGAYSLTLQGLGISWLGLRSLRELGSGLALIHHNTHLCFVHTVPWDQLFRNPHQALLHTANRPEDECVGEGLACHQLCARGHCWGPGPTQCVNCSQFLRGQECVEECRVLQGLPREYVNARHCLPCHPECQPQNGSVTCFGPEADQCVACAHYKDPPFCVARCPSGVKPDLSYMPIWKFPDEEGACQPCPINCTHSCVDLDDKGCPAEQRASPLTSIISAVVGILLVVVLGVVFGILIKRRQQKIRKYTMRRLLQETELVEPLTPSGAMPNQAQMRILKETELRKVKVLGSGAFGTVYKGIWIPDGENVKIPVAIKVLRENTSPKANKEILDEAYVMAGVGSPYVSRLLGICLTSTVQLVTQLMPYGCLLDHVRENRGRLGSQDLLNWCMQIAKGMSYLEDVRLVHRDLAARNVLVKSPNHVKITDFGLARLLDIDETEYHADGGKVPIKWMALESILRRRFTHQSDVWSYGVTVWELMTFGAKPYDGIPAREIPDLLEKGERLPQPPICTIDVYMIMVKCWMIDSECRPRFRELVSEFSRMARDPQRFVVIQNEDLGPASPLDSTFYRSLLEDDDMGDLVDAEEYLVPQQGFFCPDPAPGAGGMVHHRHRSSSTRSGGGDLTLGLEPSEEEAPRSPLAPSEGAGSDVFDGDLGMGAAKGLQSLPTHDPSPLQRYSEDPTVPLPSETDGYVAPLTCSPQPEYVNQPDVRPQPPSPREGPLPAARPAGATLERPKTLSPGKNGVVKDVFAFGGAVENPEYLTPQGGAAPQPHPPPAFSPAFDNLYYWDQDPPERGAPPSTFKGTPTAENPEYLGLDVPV

[2] = target: Epidermal growth factor receptor (Homo sapiens, UniProt P00533); assay: Inhibition of autophosphorylation of EGFR cytoplasmic domain (amino acids 645 to 1186) (unknown origin) expressed in Sf9 cells after 1 hr by time-resolved fluorometry
Epidermal growth factor receptor, sequence (P00533 whole entry, the tested form may be a part): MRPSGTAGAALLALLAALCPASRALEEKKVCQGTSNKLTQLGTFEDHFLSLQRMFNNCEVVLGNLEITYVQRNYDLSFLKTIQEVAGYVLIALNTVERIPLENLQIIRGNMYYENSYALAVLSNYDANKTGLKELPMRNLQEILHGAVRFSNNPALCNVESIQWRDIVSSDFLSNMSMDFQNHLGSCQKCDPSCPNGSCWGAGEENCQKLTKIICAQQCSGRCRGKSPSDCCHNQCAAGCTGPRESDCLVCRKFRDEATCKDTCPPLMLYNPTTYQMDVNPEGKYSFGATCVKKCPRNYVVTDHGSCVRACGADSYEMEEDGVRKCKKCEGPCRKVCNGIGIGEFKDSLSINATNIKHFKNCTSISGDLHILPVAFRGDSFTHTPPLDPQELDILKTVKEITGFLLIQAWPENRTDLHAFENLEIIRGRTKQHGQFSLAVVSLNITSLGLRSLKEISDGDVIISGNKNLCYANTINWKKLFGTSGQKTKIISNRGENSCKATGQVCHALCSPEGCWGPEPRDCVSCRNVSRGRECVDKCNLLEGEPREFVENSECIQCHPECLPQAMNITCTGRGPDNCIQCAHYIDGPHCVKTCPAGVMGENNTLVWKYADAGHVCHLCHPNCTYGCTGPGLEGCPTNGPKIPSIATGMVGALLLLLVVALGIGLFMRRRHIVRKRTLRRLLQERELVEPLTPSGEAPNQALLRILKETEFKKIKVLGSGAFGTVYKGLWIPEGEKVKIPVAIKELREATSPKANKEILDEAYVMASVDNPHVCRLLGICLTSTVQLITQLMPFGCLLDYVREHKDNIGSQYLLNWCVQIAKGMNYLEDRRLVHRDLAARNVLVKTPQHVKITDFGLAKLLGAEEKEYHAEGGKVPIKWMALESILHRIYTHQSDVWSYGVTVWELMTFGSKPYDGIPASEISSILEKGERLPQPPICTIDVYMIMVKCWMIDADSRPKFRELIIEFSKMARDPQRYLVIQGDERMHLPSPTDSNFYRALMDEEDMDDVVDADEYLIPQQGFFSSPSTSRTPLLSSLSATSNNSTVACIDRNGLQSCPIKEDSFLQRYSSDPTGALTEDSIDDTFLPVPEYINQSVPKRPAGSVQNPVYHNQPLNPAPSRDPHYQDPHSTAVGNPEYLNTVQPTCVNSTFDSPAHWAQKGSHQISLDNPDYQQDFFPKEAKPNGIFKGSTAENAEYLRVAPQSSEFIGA

SMILES	IC50 (A549)	IC50 (HepG2)	IC50 [1]	IC50 [2]
Cc1ncc([N+](=O)[O-])n1CC(=O)N/N=C/c1cc2ccccc2nc1Oc1ccccc1	9.45 µM	13.3 µM		
Cc1ncc([N+](=O)[O-])n1CC(=O)N/N=C/c1cc2ccccc2nc1Oc1ccc(F)cc1	3.12 µM	0.18 µM	0.37 µM	21 µM
Cc1ccc2nc(Oc3ccccc3)c(/C=N/NC(=O)Cn3c([N+](=O)[O-])cnc3C)cc2c1	7.18 µM	15.1 µM	1.58 µM	3.17 µM
COc1ccc(Oc2nc3ccc(C)cc3cc2/C=N/NC(=O)Cn2c([N+](=O)[O-])cnc2C)cc1	0.16 µM	3.15 µM	2.18 µM	0.12 µM

The remaining compounds from weak to strong by IC50 (A549), led by results:

IC50 (A549)	IC50 (HepG2)	IC50 [1]	IC50 [2]	SMILES
21.5 µM	27.1 µM	7.67 µM	23.1 µM	Cc1ccc(Oc2nc3ccccc3cc2/C=N/NC(=O)Cn2c([N+](=O)[O-])cnc2C)cc1
9.03 µM	0.22 µM	4.1 µM	5.12 µM	Cc1ncc([N+](=O)[O-])n1CC(=O)N/N=C/c1cc2ccccc2nc1Oc1ccc(Cl)cc1
1.23 µM	3.18 µM	19 µM	8.66 µM	Cc1ccc2nc(Oc3ccc(Cl)cc3)c(/C=N/NC(=O)Cn3c([N+](=O)[O-])cnc3C)cc2c1
1.19 µM	21.9 µM	17 µM	0.18 µM	Cc1ccc(Oc2nc3ccc(C)cc3cc2/C=N/NC(=O)Cn2c([N+](=O)[O-])cnc2C)cc1
0.92 µM	4.13 µM	12 µM	0.27 µM	COc1ccc(Oc2nc3ccccc3cc2/C=N/NC(=O)Cn2c([N+](=O)[O-])cnc2C)cc1
0.19 µM	1.56 µM	0.43 µM	0.42 µM	Cc1ccc2nc(Oc3ccc(F)cc3)c(/C=N/NC(=O)Cn3c([N+](=O)[O-])cnc3C)cc2c1
